Counter-ions that a name gives are not always drawn.
The compounds below were run against T1, human GPR120 (Homo sapiens, UniProt Q5NUL3) (assay: GPR120 pERK AlphaScreen SureFire assay (human)). Conditions: CHO cells stably transfected with short form of human GPR120.
T1 construct: expressed in transfected cells; host or cells: CHOA12 cells
T1 sequence (Q5NUL3 1-361): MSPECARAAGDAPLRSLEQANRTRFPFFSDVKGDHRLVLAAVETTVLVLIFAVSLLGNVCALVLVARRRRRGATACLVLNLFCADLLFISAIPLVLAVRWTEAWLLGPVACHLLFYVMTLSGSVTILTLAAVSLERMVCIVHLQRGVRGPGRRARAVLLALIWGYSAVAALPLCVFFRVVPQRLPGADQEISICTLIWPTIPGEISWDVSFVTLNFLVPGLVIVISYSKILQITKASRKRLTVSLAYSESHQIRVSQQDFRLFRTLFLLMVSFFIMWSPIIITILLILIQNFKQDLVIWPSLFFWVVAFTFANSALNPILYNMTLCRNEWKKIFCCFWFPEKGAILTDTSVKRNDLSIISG
Type: cell-based
Text: GPR120 activity was monitored by measuring phosphorylation of ERK (pERK), since G protein receptors are known to activate the ERK signaling cascade either directly and/or through recruitment of arrestin that serves as a scaffold for downstream signaling events.
GPR120 pERK AlphaScreen SureFire Assay
The human and mouse GPR120-mediated intracellular phosphorylated ERK assays were established using CHOA12 cells stably transfected with the short form of human or mouse GPR120 receptor. Cells were cultured in growth medium consisting of F-12 media (Invitrogen Cat. #11765) with 5% Charcoal/Dextran FBS (Invitrogen Cat. #12676-029), 500 μg/mL GENETICIN® (Life Technologies Cat. #10131-027) and 250 μg/mL Zeocin (Invitrogen Cat. #R250-01). Cells were cryo preserved at a concentration of 2×10^7 cells/mL, in 90% Charcoal/Dextran FBS and 10% DMSO, and frozen in liquid nitrogen at a low passage number.
For the pERK assay, 2×10^7 cells/mL cryopreserved human and mouse cells were thawed rapidly in a 37° C. water bath and added to a T-225 flask containing 50 mL growth medium. The flasks were placed in a tissue culture incubator overnight (37° C., 5% CO2). The next day, cells were harvested with trypsin (Gibco Cat. #25300-054), resuspended in serum-containing growth medium and counted using a Cellometer and volume adjusted to a concentration of 0.6×10^6cells/mL. Cells were plated into 384-well clear bottom tissue culture plates (BD Cat. #353962) at 50 μL/well, for a density of 30,000 cells/well using a MULTIDROP® and incubated for 16-18 hours (overnight) at 37° C. with 5% CO2. The next day, cells were serum starved in 30 μL of F-12 media without any serum or antibiotics for 2 hours at 37° C.
Test compounds were 3-fold, 11-point serially diluted in DMSO in a REMP assay plate (Matrix Cat. #4307) by Tecan and 5 μL was transferred into an ECHO source plate (LABCYTE® Cat. #LC-0200). Cells were then stimulated with 50 nL of compound dilutions using ECHO liquid handler for 7 minutes at 37° C. Compounds ranged from final assay concentrations of 33.33 μM to 0.56 nM.
The media was then dumped and cells lysed with 20 μL of 1× Lysis buffer from the AlphaScreen SureFire Phospho-ERK 1/2 Kit (Perkin Elmer Cat. #6760617M). The lysis buffer was diluted 5-fold with water before use. The plate was agitated on a shaker for 10 minutes after which 2 μL was transferred into a 384-well white proxiplate (Perkin Elmer Cat. #6008289). The SureFire assay reagent mix was prepared by mixing 60 parts Reaction Buffer, 10 parts Activation Buffer, 1 part Donor Beads, 1 part Acceptor Beads (Perkin Elmer Cat. #TGRES10K). 3.5 μL/well of this reagent mix was manually added to the proxiplate with a multichannel pipettor. Plates were spun down at 1000 rpm for 2 minutes, followed by light-protected incubation at room temperature for 2 hours. The plates were read on the Alpha-technology compatible Envision multilabel plate reader using AlphaScreen protocol according to manufacturer's specifications. The agonist effect of compounds was expressed as 100×(average sample−average blank)/(average total−average blank) where sample is the luminescence activity in the presence of test compound, blank is equal to the luminescence activity in the presence of DMSO control and the total is signal induced by 50 μM linolenic acid as reference compound. Activation data for the test compound over a range of concentrations was plotted as percentage activation of the test compound (100%=maximum response). After correcting for background, EC50 values were determined The EC50 is defined as the concentration of test compound which produces 50% of the maximal response and was quantified using the 4 parameter logistic equation to fit the data.
The human and mouse GPR120-mediated intracellular phosphorylated ERK assays were also established using CHO-K1 cells stably transfected with the short form of human or mouse GPR120 receptor. […]

| Compound | EC50 |
| --- | --- |
| O=C(O)C[C@@H]1C[C@H]1CC12CCC(c3cccc(Oc4ccccc4)c3)(CC1)OC2 (single isomer, unassigned) [Example 18] | 410 nM |
| O=C(O)COCCC12CCC(c3cccc(Oc4ccc(F)c(F)c4)n3)(CC1)OC2 [Example 116, 2-(2-(1-(6-(3,4-Difluorophenoxy)pyridin-2-yl)-2-oxabicyclo[2.2.2]octan-4-yl)ethoxy) acetic acid] | 1150 nM |
| COc1cc(Oc2ccc(F)cc2)cc(C23CCC(CCOCC(=O)O)(CC2)CO3)c1 [Example 92, 2-(2-(1-(3-(4-fluorophenoxy)-5-methoxyphenyl)-2-oxabicyclo[2.2.2]octan-4-yl)ethoxy)acetic acid] | 800 nM |
| O=C(O)[C@@H]1C[C@H]1CCC12CCC(c3cc(F)cc(Oc4cccc(F)c4)c3)(CC1)OC2 (single isomer, unassigned) [Example 64, 2-(2-(1-(3-Fluoro-5-(3-fluorophenoxy)phenyl)-2-oxabicyclo[2.2.2]octan-4-yl)ethyl) cyclopropanecarboxylic acid] | 260 nM |
| O=C(O)COCCC12CCC(c3cccc(C4=CCCC4)c3)(CC1)OC2 [Example 24, 2-(2-(1-(3-Cyclopentenylphenyl)-2-oxabicyclo[2.2.2]octan-4-yl)ethoxy)acetic acid] | 800 nM |
| O=C(O)[C@@H]1C[C@H]1CCC12CCC(c3cccc(Oc4ccc(F)c(F)c4)c3)(CC1)OC2 [Example 73, (1R,2R)-2-(2-(1-(3-(3,4-difluorophenoxy)phenyl)-2-oxabicyclo[2.2.2]octan-4-yl)ethyl) cyclopropanecarboxylic acid] | 540 nM |
| O=C(O)COCCC12CCC(c3cccc(OCC4CCC4)c3)(CC1)OC2 [Example 51, 2-(2-(1-(3-(Cyclobutylmethoxy)phenyl)-2-oxabicyclo[2.2.2]octan-4-yl)ethoxy)acetic acid] | 1090 nM |
| Cc1ccc(Oc2cc(C34CCC(CCOCC(=O)O)(CC3)OC4)ccc2F)cc1F [Example 112] | 270 nM |
| O=C(O)[C@@H]1C[C@H]1CCC12CCC(c3cccc(Oc4ccccc4)c3)(CC1)OC2 (single isomer, unassigned) [Example 15] | 480 nM |
| O=C(O)CCCCC12CCC(c3cccc(OC4CCCCO4)c3)(CC1)OC2 (stereo not shown) [Example 10, 5-(1-(3-(Tetrahydro-2H-pyran-2-yloxy)phenyl)-2-oxabicyclo[2.2.2]octan-4-yl)pentanoic acid] | 640 nM |
| COc1ccc(Oc2cccc(C34CCC(CCOCC(=O)O)(CC3)OC4)c2)cc1F [Example 100, 2-(2-(4-(3-(3-Fluoro-4-methoxyphenoxy)phenyl)-2-oxabicyclo[2.2.2]octan-1-yl)ethoxy) acetic acid] | 550 nM |
| Cc1ccc(Oc2cc(F)cc(C34CCC(CCOCC(=O)O)(CC3)OC4)c2)cc1F [Example 108, 2-(2-(4-(3-Fluoro-5-(3-fluoro-4-methylphenoxy)phenyl)-2-oxabicyclo[2.2.2]octan-1-yl)ethoxy)acetic acid] | 730 nM |
| O=C(O)COCCC12CCC(c3cccc(OC4CCCCC4)c3)(CC1)OC2 [Example 8, 2-(2-(1-(3-(Cyclohexyloxy)phenyl)-2-oxabicyclo[2.2.2]octan-4-yl)ethoxy)acetic acid] | 1050 nM |
| O=C(O)CCOCC12CCC(c3cccc(Oc4ccccc4)c3)(CC1)CO2 [Example 30, 3-((4-(3-Phenoxyphenyl)-2-oxabicyclo[2.2.2]octan-1-yl)methoxy)propanoic acid] | 140 nM |
| O=C(O)COCCC12CCC(c3cc(F)cc(Oc4ccc(F)cc4)c3)(CC1)OC2 [Example 85, 2-(2-(1-(3-fluoro-5-(4-fluorophenoxy)phenyl)-2-oxabicyclo[2.2.2]octan-4-yl)ethoxy)acetic acid] | 310 nM |
| O=C(O)COCCC12CCC(c3cc(F)cc(Oc4ccc(F)c(F)c4)c3)(CC1)OC2 [Example 79, 2-(2-(1-(3-(3,4-difluorophenoxy)-5-fluorophenyl)-2-oxabicyclo [2.2.2]octan-4-yl)ethoxy) acetic acid] | 550 nM |
| O=C(O)COCCC12CCC(c3cc(F)cc(Oc4cccc(F)c4)c3)(CC1)OC2 [Example 55, 2-(2-(1-(3-Fluoro-5-(3-fluorophenoxy)phenyl)-2-oxabicyclo[2.2.2]octan-4-yl)ethoxy) acetic acid] | 330 nM |
| CCCC(C)Oc1cccc(C23CCC(CCOCC(=O)O)(CC2)CO3)c1 (racemic) [Example 53, 2-(2-(1-(3-(Pentan-2-yloxy)phenyl)-2-oxabicyclo[2.2.2]octan-4-yl)ethoxy)acetic acid] | 1030 nM |
| Cc1nc(-c2ccccc2)c(C23CCC(CCCCC(=O)O)(CC2)CO3)s1 [Example 4, 5-(1-(2-Methyl-4-phenylthiazol-5-yl)-2-oxabicyclo[2.2.2]octan-4-yl)pentanoic acid] | 1600 nM |
| O=C(O)COCCC12CCC(c3cccc(Oc4cccc(Cl)c4)c3)(CC1)OC2 [Example 44, 2-(2-(1-(3-(3-chlorophenoxy)phenyl)-2-oxabicyclo[2.2.2]octan-4-yl)ethoxy) acetic acid] | 450 nM |
| O=C(O)COCCC12CCC(c3cccc(Oc4cc(F)cc(F)c4)c3)(CC1)OC2 [Example 76, 2-(2-(1-(3-(3,5-difluorophenoxy)phenyl)-2-oxabicyclo[2.2.2]octan-4-yl)ethoxy)acetic acid] | 420 nM |
| COc1cccc(Oc2cccc(C34CCC(CCOCC(=O)O)(CC3)CO4)c2)c1 [Example 22, 2-(2-(1-(3-(3-Methoxyphenoxy)phenyl)-2-oxabicyclo[2.2.2]octan-4-yl)ethoxy)acetic acid] | 380 nM |
| O=C(O)CCOCC12CCC(c3cccc(Oc4ccccc4)c3)(CC1)OC2 [Example 5, 3-((1-(3-Phenoxyphenyl)-2-oxabicyclo[2.2.2]octan-4-yl)methoxy)propanoic acid] | 80 nM |
| OCCCCC12CCC(c3cccc(Oc4ccccc4)c3)(CC1)OC2 [Example 57, 4-(1-(3-Phenoxyphenyl)-2-oxabicyclo[2.2.2]octan-4-yl)butan-1-ol] | 1880 nM |
| O=C(O)COCCC12CCC(c3cccc(C(F)(F)F)c3)(CC1)OC2 [Example 49, 2-(2-(1-(3-(Trifluoromethyl)phenyl)-2-oxabicyclo[2.2.2]octan-4-yl)ethoxy)acetic acid] | 3310 nM |
| O=C(O)COCCC12CCC(c3cccc(Oc4cccnc4)c3)(CC1)OC2 [Example 21, 2-(2-(1-(3-(Pyridin-3-yloxy)phenyl)-2-oxabicyclo[2.2.2]octan-4-yl)ethoxy)acetic acid, TFA salt] | 6860 nM |
| COc1cccc(Oc2cccc(C34CCC(CCOCC(=O)O)(CC3)OC4)c2)c1 [Example 102] | 660 nM |
| O=C(O)CNC(=O)CC12CCC(c3cccc(Oc4ccccc4)c3)(CC1)OC2 [Example 27, 2-(2-(1-(3-Phenoxyphenyl)-2-oxabicyclo[2.2.2]octan-4-yl)acetamido)acetic acid] | 5020 nM |

From US8962660B2 (Bristol-Myers Squibb Company, priority 2013, dated 2015)
